In ChEMBL document CHEMBL4739717, “Methods of treating cartilage disorders through inhibition of clk and dyrk” (2020):

Assays:
[1] = target: Dual specificity tyrosine-phosphorylation-regulated kinase 1A (Homo sapiens, UniProt Q13627); experiment: Inhibition of recombinant DYRK1A (unknown origin) using Ser/Thr 18 peptide as substrate incubated for 1 hr in presence of ATP by FRET assay
[2] = Inhibition of IL1-beta induced MMP3 expression levels in human chondrocytes assessed as MMP3 levels incubated for 2hrs followed by IL1-beta stimulation and measured after overnight incubation by LANCE assay; assay type: functional, cell-based; settings: Chondrocyte
[3] = Effect on Wnt signaling pathway in human SW480 cells harbouring TCF/LEF luciferase reporter gene and SP5-Luc reporter gene incubated for 36 to 48 hrs by luminescence assay; assay type: cell-based
[4] = Induction of chondrogenesis in human MSC assessed as maximum activity at 10 nM incubated for 6 days by rhodamine B and Nile red staining based imaging analysis relative to control; assay type: functional; settings: BMMSC, 144 h, time 6 day

Compound	EC50 [1] [µM]	EC50 [2] [µM]	EC50 [3] [µM]	Emax at 0.01 µM [4] [%]
O=C(CC1CCNCC1)Nc1cncc(-c2ccc3[nH]nc(-c4nc5c(-c6ccsc6)nccc5[nH]4)c3n2)c1	0.01	3	> 10	
O=C(Nc1cccnc1)c1n[nH]c2ccc(-c3cncc(CN4CC(CO)(CO)C4)c3)cc12	0.002	0.0697	> 10	
O=C(Nc1cncc(-c2ccc3[nH]nc(-c4cc5c(-c6ccccc6F)nccc5[nH]4)c3n2)c1)C1CC1	0.046		0.642	24.8
CC(C)CC(=O)Nc1cncc(-c2ccc3[nH]nc(-c4nc5c(-c6cc(F)cc(NCCN(C)C)c6)cncc5[nH]4)c3c2)c1	0.01		0.022	82
Cc1cn(-c2cncc3[nH]c(-c4n[nH]c5ccc(-c6cncc(NC(=O)CC(C)C)c6)cc45)nc23)cn1	0.001	0.845	4.57	
Cc1ncc(NC(=O)c2n[nH]c3ccc(-c4cnn(C5CCN(C)CC5)c4)cc23)s1	0.003	3	0.095	
Cc1[nH]nc(C(=O)Nc2ccc(OC3CCN(C)CC3)nc2)c1/C=C/c1cccnc1	0.02	0.0178	> 10	
CN1CCC(n2cc(C(=O)Nc3cc4cc(-c5cncc6[nH]ccc56)ccc4cn3)cn2)CC1	0.003	0.0401	0.0133	
Cc1n[nH]c2ccc(-c3cncc(OC[C@@H]4Cc5ccccc5CN4)n3)cc12	0.056	3	2.81	
CC(C)n1cc(C(=O)Nc2cc3cc(-c4cncc(NC5CCN(C)CC5)n4)ncc3cn2)cn1	0.001	3	0.165	
O=C(Nc1ccc(CN2CCCC2)cc1)c1n[nH]c2ccc(-c3cccnc3F)cc12	0.001	3	0.196	
Cc1n[nH]c2ccc(-c3cncc(N4CCC[C@H](N)C4)n3)cc12	0.05	3	1.43	
Cc1n[nH]c2ccc(-c3cncc(N4CC(C)(N)C4)n3)cc12	0.063	1.61	3.51	
CN1CCC(Oc2ccc(NC(=O)c3n[nH]c4cc(F)c(-c5cnn(C)c5)cc34)cn2)CC1	0.001	1.08	0.12	
CC(C)n1cc(C(=O)Nc2cc3cc(-c4cncn4C)ccc3cn2)cn1	0.002	1.43	0.0348	
O=C(Nc1ccc(OCCN2CCCC2)cc1)c1n[nH]cc1/C=C/c1cccnc1	0.004	3	1.85	

Compound	EC50 [1] [µM]	EC50 [2] [µM]	EC50 [3] [µM]	Emax at 0.01 µM [4] [%]
O=C(Nc1ccc(OC(CO)CO)nc1)c1n[nH]c2ccc(-c3cncc(CN4CCCCC4)c3)cc12	0.004	0.303	0.5	
O=C(Nc1ccc(N2CCCC2)nc1)c1n[nH]c2ccc(-c3cncc(CN4CCC4)c3)cc12	0.003	3	> 10	
Nc1ncc(NC(=O)c2n[nH]c3ccc(-c4cncc(CN5CCCCC5)c4)cc23)cn1	0.001	0.18	0.03	
CN1CCC(Oc2ncc(NC(=O)c3n[nH]c4cc(F)c(-c5cnn(C)c5)cc34)cc2F)CC1	0.001	0.0126	1.15	
Cn1cc(-c2cc3c(C(=O)Nc4ccc5c(c4)CNC5)n[nH]c3cc2F)cn1	0.002	1.2	0.793	
O=C(Nc1ccc(OC(F)F)cc1)c1n[nH]c2ccc(-c3cnc4n3CCNC4)cc12	0.016	0.013	0.684	
O=C(Nc1ccc(CN2CCCC2)cc1)c1n[nH]c2ccc(-c3cnccn3)cc12	0.004	0.0071	1.66	
Cn1cc(-c2cc3c(C(=O)Nc4ccc(OCCN5CCCC5)cc4)n[nH]c3cc2F)cn1	0.001	3	0.315	
O=C(Nc1ccc(N2CCNCC2)nc1)c1n[nH]cc1/C=C/c1cccnc1	0.001	0.0002	1.65	
O=C(Nc1cc2cc(-c3cnn4c3CCNC4)ccc2cn1)c1ccc(OC(F)F)cc1	0.006	1.92	0.375	
CCC1(N)CN(c2cncc(-c3ccc4[nH]nc(C)c4c3)n2)C1	0.054	3	1.73	
CCNCc1cncc(-c2ccc3[nH]nc(-c4nc5c(-c6ccccn6)nccc5[nH]4)c3c2)c1	0.01	0.0024	2.13	
Cc1n[nH]c2ccc(-c3cncc(OCC4(F)CNC4)n3)cc12	0.025	0.035	3.25	
Cc1cc(-c2ccc3[nH]nc(C(=O)Nc4ccc(OC5CCN(C)CC5)cc4)c3c2)sn1	0.003	0.0442	0.645	
Cc1[nH]nc(C(=O)Nc2ccc(CN3CCCC3)cc2)c1/C=C/c1cccnc1	0.033	1.05	2.15	
